Assay results taken from patent US20230340012A1, “NATURAL AND SYNTHETIC COMPOUNDS FOR TREATING CANCER AND OTHER DISEASES” (PACIFIC ARROW LIMITED, priority 2009, published 2023).

The compounds below were run on cancer cells (assay: MTT cytotoxic assay of esterification products (Cytotoxicity activity)). Conditions: E4A esterified with Cinnamoyl chloride (Cin = Cinnamoyl), compounds isolated with HPLC.
Assay type: cell-based, human
Procedure, shortened: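 Cytotoxicity was read by MTT (Carmichael method, modified), with cells seeded 24 h ahead of treatment. Sixteen human cancer lines spanning bone, lung, bladder, ovary, colon, pancreas, prostate, skin, mouth, kidney, breast, liver, brain, leukemia and cervix were used. Test samples were acyl chloride esterification products of triterpenes, as mixtures or HPLC-purified compounds.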

| Compound | Cytotoxicity activity |
| --- | --- |
| CC1(C)CC2C3=CCC4C5(C)CCC(OC(=O)C=Cc6ccccc6)C(C)(COC(=O)C=Cc6ccccc6)C5CCC4(C)C3(C)CC(O)C2(COC(=O)C=Cc2ccccc2)C(O)C1OC(=O)C=Cc1ccccc1 (stereo not shown) [Compound J11] | weak |
| CC1(C)CC2C3=CCC4C5(C)CCC(O)C(C)(COC(=O)C=Cc6ccccc6)C5CCC4(C)C3(C)CC(OC(=O)C=Cc3ccccc3)C2(COC(=O)C=Cc2ccccc2)C(OC(=O)C=Cc2ccccc2)C1O (stereo not shown) [Compound J12] | weak |
| CC1(C)CC2C3=CCC4C5(C)CCC(O)C(C)(COC(=O)C=Cc6ccccc6)C5CCC4(C)C3(C)CC(OC(=O)C=Cc3ccccc3)C2(COC(=O)C=Cc2ccccc2)C(O)C1OC(=O)C=Cc1ccccc1 (stereo not shown) [Compound J13] | weak |
| CC1(C)CC2C3=CCC4C5(C)CCC(OC(=O)C=Cc6ccccc6)C(C)(COC(=O)C=Cc6ccccc6)C5CCC4(C)C3(C)CC(O)C2(COC(=O)C=Cc2ccccc2)C(OC(=O)C=Cc2ccccc2)C1OC(=O)C=Cc1ccccc1 (stereo not shown) [Compound J15] | weak |
| CC1(C)CC2C3=CCC4C5(C)CCC(O)C(C)(COC(=O)C=Cc6ccccc6)C5CCC4(C)C3(C)CC(OC(=O)C=Cc3ccccc3)C2(COC(=O)C=Cc2ccccc2)C(OC(=O)C=Cc2ccccc2)C1OC(=O)C=Cc1ccccc1 (stereo not shown) [Compound J16] | weak |
| CC1(C)CC2C3=CCC4C5(C)CCC(OC(=O)C=Cc6ccccc6)C(C)(COC(=O)C=Cc6ccccc6)C5CCC4(C)C3(C)CC(OC(=O)C=Cc3ccccc3)C2(COC(=O)C=Cc2ccccc2)C(O)C1OC(=O)C=Cc1ccccc1 (stereo not shown) [Compound J17] | weak |
| CC1(C)CC2C3=CCC4C5(C)CCC(OC(=O)C=Cc6ccccc6)C(C)(COC(=O)C=Cc6ccccc6)C5CCC4(C)C3(C)CC(OC(=O)C=Cc3ccccc3)C2(COC(=O)C=Cc2ccccc2)C(OC(=O)C=Cc2ccccc2)C1O (stereo not shown) [Compound J18] | weak |
| CC1(C)CC2C3=CCC4C5(C)CCC(OC(=O)C=Cc6ccccc6)C(C)(COC(=O)C=Cc6ccccc6)C5CCC4(C)C3(C)CC(OC(=O)C=Cc3ccccc3)C2(COC(=O)C=Cc2ccccc2)C(OC(=O)C=Cc2ccccc2)C1OC(=O)C=Cc1ccccc1 (stereo not shown) [Compound J19] | none |
| CC1(C)CC2C3=CCC4C5(C)CCC(O)C(C)(CO)C5CCC4(C)C3(C)CC(O)C2(COC(=O)C=Cc2ccccc2)C(OC(=O)C=Cc2ccccc2)C1OC(=O)C=Cc1ccccc1 (stereo not shown) [Compound J20] | moderate |
| CC1(C)CC2C3=CCC4C5(C)CCC(O)C(C)(COC(=O)C=Cc6ccccc6)C5CCC4(C)C3(C)CC(O)C2(CO)C(OC(=O)C=Cc2ccccc2)C1OC(=O)C=Cc1ccccc1 (stereo not shown) [Compound J21] | moderate |
| CC1(C)CC2C3=CCC4C5(C)CCC(O)C(C)(CO)C5CCC4(C)C3(C)CC(OC(=O)C=Cc3ccccc3)C2(CO)C(OC(=O)C=Cc2ccccc2)C1OC(=O)C=Cc1ccccc1 (stereo not shown) [Compound J22] | moderate |
| CC1(C)CC2C3=CCC4C5(C)CCC(OC(=O)C=Cc6ccccc6)C(C)(CO)C5CCC4(C)C3(C)CC(O)C2(CO)C(OC(=O)C=Cc2ccccc2)C1OC(=O)C=Cc1ccccc1 (stereo not shown) [Compound J23] | moderate |
| CC1(C)CC2C3=CCC4C5(C)CCC(O)C(C)(CO)C5CCC4(C)C3(C)CC(O)C2(CO)C(OC(=O)C=Cc2ccccc2)C1OC(=O)C=Cc1ccccc1 (stereo not shown) [Compound J24] | moderate |
| CC1(C)CC2C3=CCC4C5(C)CCC(O)C(C)(CO)C5CCC4(C)C3(C)CC(O)C2(COC(=O)C=Cc2ccccc2)C(O)C1OC(=O)C=Cc1ccccc1 (stereo not shown) [Compound J25] | moderate |
| CC1(C)CC2C3=CCC4C5(C)CCC(O)C(C)(CO)C5CCC4(C)C3(C)CC(O)C2(COC(=O)C=Cc2ccccc2)C(OC(=O)C=Cc2ccccc2)C1O (stereo not shown) [Compound J26] | moderate |
| CC1(C)CC2C3=CCC4C5(C)CCC(OC(=O)C=Cc6ccccc6)C(C)(CO)C5CCC4(C)C3(C)CC(O)C2(COC(=O)C=Cc2ccccc2)C(O)C1O (stereo not shown) [Compound J27] | moderate |
